The text below walks through data of patent publication US20240318220A1, “IONIC LIQUIDS BASED ON UNNATURAL AMINO ACIDS, PREPARATION METHODS THEREOF, AND APPLICATIONS THEREOF” (PEKING UNIVERSITY, priority 2022, published 2024).

Series [1] relates to mdx mice. The experiment in a line: Full-length expression of Dystrophin in muscle tissue by immunoblotting. The conditions noted are these: mdx mice with AAV-MmpylRS-tRNA, oral, 2 weeks. It counts as in vivo. The protocol:
FIG. 12. Flow Diagram of Treating DMD Disease in Mdx Mouse Model Using Ionic Liquid Ch-NAEK and the Codon Expansion System Experimental exploration was conducted to investigate the treatment of DMD disease. Following successful synthesis, identification and activity evaluation of the three ionic liquids Ch-NAEK, Ch-pAcF and Ch-Anap, Ch-NAEK was selected as the preferred ionic liquid for subsequent disease treatment. mdx mice with DMD disease were initially intramuscularly injected with AAV-MmpylRS-tRNA virus and subsequently orally administered with Ch-NAEK (at a mass volume fraction of 70%) daily for four weeks. Muscle tissue samples were collected in the first, second, and fourth weeks for detection of Dystrophin protein restoration. HE pathological staining of mouse muscle tissue, determination of serum CK kinase content, and testing of mouse grip strength were performed.
mdx mice, a classic mouse model for DMD (Duchenne Muscular Dystrophy) research, have a nonsense mutation of TAA at the […] of Dystrophin exon, resulting in the failure of normal expression of Dystrophin, and thus leading to symptoms of muscle atrophy in muscle and heart tissues in mice. mdx mice injected with AAV-MmpylRS-tRNA virus were divided into two experimental groups. […] The therapeutic effects were evaluated at the time points of 1, 2, and 4 weeks after administration. […]
A general note: A western blot detects proteins with antibodies after separation by electrophoresis.

Series [2] in a line: Serum concentration curve of NAEK after oral administration. Type of series: in vivo. The following applies: mice, 30 mg NAEK or equimolar amount. The protocol: FIG. 5B. […] The NAEK content in the serum reached a maximum of about 1.6 μg/mL two hours after oral administration, as evidenced by the curve in the NAEK-aqueous solution group. Subsequently, 8 hours after oral administration, the NAEK content in the serum diminished to nearly zero, indicating rapid metabolism of NAEK, which could be completed in 6 hours. […] Furthermore, only 22 hours after oral administration, the serum NAEK content approached zero, indicating complete metabolism within approximately […].
Two experimental groups were set, with 12 mice in each group. In one group, each mouse was orally administered with 30 mg NAEK aqueous solution, and in the other group, each mouse was orally administered with an equimolar amount of Ch-NAEK. Blood was collected from the orbital plexus of the mice at 1 h, 2 h, 4 h, 6 h, 8 h, 9 h, 10 h, 14 h, 19 h, and 22 h time points to plot the NAEK serum concentration in mice as function of time (FIG. 5B).

As to `[N-]=[N+]=NCCOC(=O)NCCCC[C@H](N)C(=O)O` [NAEK-aqueous solution], the “restoration of full-length disease protein (Dystrophin) expression, in words” value in series [1] is “very low”. In series [2], the “maximum NAEK content in serum” value is given as “about 1.6 μg/mL”, the “time after oral administration at which serum NAEK content approached zero” value is 8 h, the “time for complete metabolism of NAEK” value is 6 h and the “time of maximum serum NAEK content after oral administration” value is “two”.
